What was measured:
[1] = system: mechanical allodynia induced by spinal nerve injury; assay: Spinal nerve ligation (SNL) model, repeated intraperitoneal administration, mechanical allodynia; type: in vivo, mouse
Method: (§1) Male ddY mice (6 to 12 weeks old) were used, and the threshold to a mechanical stimulus was evaluated by the vonFrey test. Specifically, the 50% withdrawal reflex threshold (Threshold) was calculated in accordance with the method of Chaplan et al. (Chaplan et al., J. Neurosci. Meth. 53, 55-63, 1994). Each compound was dissolved in 99.7% DMSO, and then the resulting solution was diluted with an artificial cerebrospinal fluid for preparation (final concentration of DMSO was 0.2%).
Spinal nerve ligation (SNL) models in which the fourth lumbar cord spinal nerves of male ddY (6 to 12 weeks old) were ligated with silk thread were used. A solvent (VEH: 10% DMSO-containing saline). PA-8, the compound 2j or the compound 20 was intraperitoneally administered (30 mg/kg) 5 to 10 minutes before the ligation, and once a day for 7 days thereafter. The method of causing a mechanical stimulus is the same as that of Example 5, and data from the first day after the ligation (D1) are data 1 hour after the administration of VEH or the drugs.

[2] = system: cold allodynia induced by oxaliplatin; assay: Onset of cold allodynia induced by oxaliplatin, drug given around oxaliplatin administration; type: in vivo, mouse; conditions: 10 mg/kg oral, 30 minutes before oxaliplatin or 3 administrations
Method: Oxaliplatin was dissolved in 5% glucose-containing saline and intraperitoneally administered at a dose of 2 mg/kg. Drug administration (oral administration) was performed 30 minutes before oxaliplatin administration (FIG. 7A); or 3 times: 30 minutes before oxaliplatin administration, 2.5 hours after the administration, and 5.5 hours after the administration (FIG. 7B). Male ddY mice (6 to 12 weeks old) were used. The axis of ordinates is the duration of the behavior of licking and paw waving after the application of an acetone drop (10 μL) to the footpad of a hind paw.

PAC1 receptor = target: T1, PAC1 receptor (Homo sapiens, UniProt P41586); conditions: Non Patent Literature 3; cited from earlier work
T1 sequence (P41586 21-468): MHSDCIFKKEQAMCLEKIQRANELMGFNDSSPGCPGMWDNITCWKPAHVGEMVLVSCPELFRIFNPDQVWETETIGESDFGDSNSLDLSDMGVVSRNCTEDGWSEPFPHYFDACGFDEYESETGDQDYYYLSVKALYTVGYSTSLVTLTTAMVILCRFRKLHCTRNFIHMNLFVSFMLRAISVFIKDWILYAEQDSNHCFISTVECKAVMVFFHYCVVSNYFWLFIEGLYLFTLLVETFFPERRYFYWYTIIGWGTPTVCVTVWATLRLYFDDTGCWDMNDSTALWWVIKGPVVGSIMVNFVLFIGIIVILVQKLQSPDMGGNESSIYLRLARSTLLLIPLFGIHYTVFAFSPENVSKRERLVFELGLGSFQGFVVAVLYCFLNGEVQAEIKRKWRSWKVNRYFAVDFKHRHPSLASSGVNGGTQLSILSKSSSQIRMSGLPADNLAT

[3] = target: T2, mouse PAC receptor-expressing CHO cell (PAC1/CHO cell) (Mus musculus, UniProt P70205); assay: CREB phosphorylation by PACAP stimulus, Western blot, PAC1/CHO cell; type: cell-based
T2 construct: expressed in transfected cells; host or cells: CHO cells
T2 sequence (P70205 21-496): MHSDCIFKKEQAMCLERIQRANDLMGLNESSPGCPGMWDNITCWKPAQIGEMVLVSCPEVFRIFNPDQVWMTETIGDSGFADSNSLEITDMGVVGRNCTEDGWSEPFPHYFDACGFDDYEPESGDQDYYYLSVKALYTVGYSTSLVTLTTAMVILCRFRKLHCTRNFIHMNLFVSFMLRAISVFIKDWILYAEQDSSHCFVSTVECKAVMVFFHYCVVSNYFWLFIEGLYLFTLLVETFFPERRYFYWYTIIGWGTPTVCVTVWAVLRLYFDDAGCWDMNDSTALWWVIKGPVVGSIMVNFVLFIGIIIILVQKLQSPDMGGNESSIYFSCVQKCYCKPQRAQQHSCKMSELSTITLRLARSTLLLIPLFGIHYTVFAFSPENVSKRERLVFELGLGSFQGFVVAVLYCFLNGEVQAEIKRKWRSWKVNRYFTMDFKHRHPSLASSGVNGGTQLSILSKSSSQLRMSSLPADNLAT
Method: The effect of each compound on the phosphorylation of CREB (cAMP-responsive element-binding protein) produced by a PACAP stimulus was examined by Western blot analysis using an anti-phosphorylated CREB (pCREB) antibody with a mouse PAC receptor-expressing CHO cell (PAC1/CHO cell) and a mouse VPAC1 receptor-expressing CHO cell (VPAC1/CHO cell).
Specifically, treatment with a compound (PA-8, PA-9, compounds 2j, 20 and 3d) at 10 μM to 10 nM or a solvent therefor (VEH: 0.1% DMSO-containing phosphate buffer solution) was performed for 30 minutes, 1 nM PACAP was then added, and protein was recovered within 30 minutes after a PACAP stimulus.

[4] = system: mechanical allodynia induced by spinal nerve injury; assay: Spinal nerve ligation (SNL) model, i.t. administration on 14th day, mechanical allodynia; type: in vivo, mouse; conditions: 100 pmol i.t. on 14th day after operation
Method: as §1
Spinal nerve ligation (SNL) models in which the fourth lumbar cord spinal nerves of male ddY (6 to 12 weeks old) were ligated with silk thread were used. The i.t. administration of a solvent (VEH: 10% DMSO-containing saline), PA-8, the compound 2j or the compound 2o (FIG. 9A), or PA-9 or the compound 3d (FIG. 9B) was performed on the 14th day after the operation. The method of causing a mechanical stimulus is the same as that of Example 5, and data were acquired for 24 hours after i.t. administration over time.

[5] = system: cold allodynia induced by oxaliplatin; assay: Cold allodynia induced by oxaliplatin, drug on fourth day after oxaliplatin (acetone test); type: in vivo, mouse; conditions: 10 mg/kg, single oral administration, fourth day after oxaliplatin
Method: Oxaliplatin was dissolved in 5% glucose-containing saline and intraperitoneally administered at a dose of 2 mg/kg. A drug was administered on the fourth day after oxaliplatin administration. Male ddY mice (6 to 12 weeks old) were used. The axis of ordinates is the duration of the behavior of licking and paw waving after the application of an acetone drop (10 L) to the footpad of a hind paw.

[6] = Non Patent Literature 4; cited from earlier work
[7] = system: pain-like behavior induced by formalin; assay: Pain-like behavior induced by formalin; type: in vivo, mouse; conditions: 0.1 to 10 nmol i.t.
Method: The first phase is direct action of formalin on sensory nerves (to around 10 minutes after formalin administration). In the second phase (from around 10 minutes to 60 minutes after formalin administration), hypersensitization formed in spinal dorsal horn cells during the first phase (a type of plastic phenomenon in the nervous system also called central sensitization) is a main cause, and inflammatory reaction at the site of formalin administration contributes importantly.

C=CCOc1ccc(C2CC(=O)Nc3nc(N)[nH]c(=O)c32)cc1OC (centres unmarked) [PA-8, reference compound]
suppression of the onset of mechanical allodynia ([1]; 30 mg/kg i.p. before ligation and once a day for 7 days): suppressed the onset of mechanical allodynia significantly | mechanical threshold after discontinuation of administration ([1]; 30 mg/kg i.p., discontinued on the seventh day, versus VEH group): maintained the mechanical threshold highly significantly for at least 7 days thereafter | suppression of the onset of cold allodynia by oxaliplatin [2]: suppressed the onset of cold allodynia by oxaliplatin significantly | PAC1 receptor antagonistic action (PAC1 receptor): have PAC1 receptor antagonistic action | suppression of CREB phosphorylation by PACAP (1 nM) ([3]; PAC1/CHO cell, compound 10 μM to 10 nM, 30 minutes before 1 nM PACAP): suppressed CREB phosphorylation by PACAP (1 nM) | receptor selectivity (PAC1 versus VPAC1) ([3]; concluded from PAC1/CHO and VPAC1/CHO data): PAC1 receptor selective antagonistic drug | anti-mechanical allodynia effect [4]: suppressed the onset of mechanical allodynia significantly | suppression of cold allodynia by oxaliplatin [5]: suppressed cold allodynia by oxaliplatin significantly over 4 to 5 hours | analgesic effect [6]: have analgesic effect | effect on first phase reaction [7]: did not affect the first phase reaction | effect on second phase reaction [7]: suppressed the second phase reaction significantly depending on the concentration

From patent US11365194B2, “Analgesic drug using PAC1 receptor antagonistic drug” (KAGOSHIMA UNIVERSITY, priority 2017, dated 2022)
